Test results published in US8309552B2, “Immunomodulating heterocyclic compounds” (Medigene AG, priority 2003, dated 2012).
Like-named read-outs stand apart in the source and are kept apart here.

Tests used:
[1] = system: production of Interleukin-2 (IL-2) by Human Jurkat T Cells; assay: Inhibition of production of interleukin-2 (IL-2) by human Jurkat T cells (Raji/Jurkat co-culture, anti-CD3, IL-2 ELISA); assay type: cell-based; conditions: for inhibition at 10 µM: Compound Concentration 10 μM
Protocol: • Collins A V et al. (2002) Immunity 17, 201-210 “The interaction properties of costimulatory molecules revisited” Inhibition of Production of Interleukin-2 (IL-2) by Human Jurkat T Cells. Method
Human Raji cells were dispensed at a concentration of 2×10^5 cells per well in RPMI-1640 medium supplemented with 10% fetal calf serum, 1% penicillin/streptomycin, 1% glutamine (RPMI medium) in a 96-well round bottom microtitre plate. Compounds under investigation (dissolved in 100% DMSO) were diluted to eight-fold the desired final concentration in RPMI medium and added to the required final concentration for a total volume of 200 μl per well. After 20 minutes incubation at 37° C., Jurkat T cells were added at a concentration of 2×10^5 cells per well. Monoclonal antibody to CD3 (UCHT1, R&D Systems) was added to the cultures at a final concentration of 1 μg per ml, and where indicated, monoclonal antibody to CD28 (CD28.2, BD-Pharmingen) was also added at a concentration of 2.5 μg per ml. Cells were cultured at 37° C. for 5 hours, after which the plates were centrifuged and the supernatants harvested for IL-2 ELISA assay using the IL-2 Eli-pair kit (DIACLONE Research, Besancon, France) according to the manufacturers instructions.

[2] = biological target: T1, Biotinylated human CD80 (hCD80-BT) (Homo sapiens, UniProt P33681); assay: BIAcore biomolecular interaction analysis, binding to immobilised hCD80-BT; set-up: off-rate on CD80: unit not given here; conditions: BIAcore S51, immobilised hCD80-BT
T1 construct: biotin (biotinylated)
T1 sequence (P33681 35-242 limits assumed): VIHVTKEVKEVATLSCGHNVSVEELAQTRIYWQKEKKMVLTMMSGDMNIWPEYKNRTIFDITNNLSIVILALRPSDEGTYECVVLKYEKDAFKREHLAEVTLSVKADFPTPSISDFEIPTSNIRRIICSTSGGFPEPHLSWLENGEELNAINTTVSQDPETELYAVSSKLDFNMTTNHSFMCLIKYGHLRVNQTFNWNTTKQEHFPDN
Text: The Use of BIAcore Biomolecular Interaction Analysis
Biotinylated human CD80 (hCD80-BT) is a recombinant soluble form of a membrane bound receptor molecule (CD80) which binds to CD28 to initiate T cell activation. The interaction between CD80 and CD28 has been extensively investigated (Collins et al, 2002). Biotinlyated human HLA-A2-tax is the recombinant soluble form of a membrane bound receptor molecule that has been used in this example as a control protein, and is not expected to interact with the compounds.
The BIAcore S51™ system was used for screening the compounds of Examples 1-4 above. A series S sensor chip CM5 was docked onto the BIAcore S51™. Streptavidin was coupled to the carboxymethyl surface using standard amine coupling. The chip surface was activated with 0.2M EDC/0.05M NHS, followed by binding of streptavidin (0.25 mg/ml in 10 mM sodium acetate pH 5.0) and saturation of unoccupied sites with […].
The BIAcore S51 sensor chip has two separate sensor spots for immobilisation of proteins. hCD80-BT was immobilised on the streptavidin-coated surface of one sensor spot until a response of approximately 3000 RU was observed. A protein to control for non-specific binding of the compound was immobilised on a second sensor spot. The control protein used for these experiments was a biotinylated, soluble form of the human HLA protein.
Dilution series of compounds (1000 nM-0.05 nM) were prepared in running buffer (10 mM, pH 7.4, 150 mM NaCl, 0.005% P20; 5% DMSO).
BIAcore S51™ was run at a flow rate of 30 μl/min using running buffer. Compounds and DMSO standard solutions for correction of data for solvent effects were injected. Data were recorded automatically and were analysed using BIAcore S51 Evaluation software.

[3] = biological target: T2, CD80-CD28 interaction (Homo sapiens, UniProt P33681); assay: Homogenous Time Resolved Fluorescence (HTRF) assay, cell free; assay type: binding; conditions: 4 hours at room temperature
T2 sequence (P33681 35-242 limits assumed): T1 sequence (P33681 35-242 limits assumed)
Method in brief: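 Europium and APC labels were linked through antibodies to CD28 and CD80 fusion proteins. Compounds were tested at 100 μM-1.7 nM for 4 h at room temperature in 50 mM Tris-HCl, 150 mM NaCl pH7.8, 0.1% BSA. Emission read at 665 and 615 nm (excitation 340 nm); non-specific signal measured with C215 Fab in place of CD80; EC50 reported in bands.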

[4] = biological target: T1, Biotinylated human CD80 (hCD80-BT); conditions: CD80/CD28 interaction, cited from earlier work
[5] = inhibition of the CD80-CD28 interaction, read-out: EC50 activity in the HTRF assay
[6] = Compound Concentration 30 μM, read-out: Percentage Inhibition (relative to DMSO = 0%)
[7] = cell-free HTRF, compound concentration series 100 μM-1.7 nM, read-out: Activity (EC50 in the HTRF assay)
[8] = read-out: Percentage Inhibition (relative to DMSO = 0%)
[9] = cell free HTRF assay, concentration series 100 μM-1.7 nM, read-out: Activity (EC50 in the HTRF assay)
[10] = cell-free HTRF, concentration series 100 μM-1.7 nM, read-out: Activity (EC50 in the HTRF assay)

In the case of `CN(C)CCCNC(=O)c1ccc(-n2[nH]c3c(nnc4ccccc43)c2=O)cc1` [Example 2, N-[(dimethylamino)propyl]-4-(3-oxo-1,3-dihydro-2H-pyrazolo[4,3-c]cinnolin-2-yl)benzamide], the inhibition at 30 µM ([1]; at 30 μM, read-out: inhibition of IL-2 production) is reported as 65%, the Kd [2] is reported as less than 100 nM and the “off-rate on CD80” value [2] is reported as 2×10^−2. The EC50 [3, 5] was less than 1000 nM.
For `O=C(NCc1ccccc1)c1ccc(-n2[nH]c3c(nnc4ccccc43)c2=O)cc1` [Example 3, N-benzyl-4-(3-oxo-1,3-dihydro-2H-pyrazolo[4,3-c]cinnolin-2-yl)benzamide], the Kd [2] was less than 100 nM, the “off-rate on CD80” value [2] was 2×10^−2 and the EC50 [3, 5] was less than 1000 nM.
With `O=C(NCCCNC1CCCCC1)c1ccc(-n2[nH]c3c(nnc4ccccc43)c2=O)cc1` [Example 4, N-[(cyclohexylamino)propyl]-4-(3-oxo-1,3-dihydro-2H-pyrazolo[4,3-c]cinnolin-2-yl)benzamide] the Kd [2] was less than 100 nM, the “off-rate on CD80” value [2] was 2×10^−2 and the EC50 [3, 5] was less than 1000 nM.
In the case of `O=C(NCCCCN1CCCC1)c1ccc(-n2[nH]c3c(nnc4c(F)cccc43)c2=O)cc1` [Example 6, 4-(6-fluoro-3-oxo-1,3-dihydro-2H-pyrazolo[4,3-c]cinnolin-2-yl)-N-(pyrrolidin-1-yl-butyl)benzamide], the Kd [2] is reported as less than 100 nM, the “off-rate on CD80” value [2] is reported as 2×10^−2 and the EC50 [3, 5] is reported as less than 1000 nM.
In the case of `CN1C(C)(C)CC(NC(=O)c2ccc(-n3[nH]c4c(nnc5c(F)cccc54)c3=O)cc2)CC1(C)C` [Example 7, 4-(6-fluoro-3-oxo-1,3-dihydro-2H-pyrazolo[4,3-c]cinnolin-2-yl)-n-(1,2,2,6,6-pentamethylpiperidine-4-yl)benzamide], the Kd [2] is reported as less than 100 nM, the “off-rate on CD80” value [2] is reported as 2×10^−2 and the EC50 [3, 5] is reported as less than 1000 nM.
With `CC(C)OCCCNC(=O)c1ccc(-n2[nH]c3c(nnc4ccccc43)c2=O)cc1` [Example 53] the inhibition at 30 µM [1, 6] was 63.8% and the EC50 [3, 7] was less than 1000 nM.
With `CN1C(C)(C)CC(NC(=O)c2ccc(-n3[nH]c4c(nnc5ccccc54)c3=O)cc2)CC1(C)C` [Example 68] the inhibition at 10 µM [1, 8] was 71.7% and the EC50 [3, 7] was less than 1000 nM.
Work on `CCN1CCCC1CNC(=O)Nc1ccc(-n2[nH]c3c(nnc4ccccc43)c2=O)cc1` (stereo not shown) [Example 162] yielded an inhibition at 30 µM [1, 6] of 54.4% and an EC50 [3, 7] of less than 1000 nM.
In the case of `O=C(NCCCNC1CCCCC1)c1ccc(-n2[nH]c3c(nnc4c(F)cccc43)c2=O)cc1` [Example 235], the inhibition at 10 µM [1, 8] is reported as 59.3% and the EC50 [3, 9] is reported as less than 1000 nM.
With `CN1CCC(NC(=O)c2ccc(-n3[nH]c4c(nnc5c(F)cccc54)c3=O)cc2)CC1` [Example 349] the inhibition at 10 µM [1, 8] was 79.5% and the EC50 [3, 9] was less than 1000 nM.
With `O=C(NCCCN1CCOCC1)c1ccc(-n2[nH]c3c(nnc4c(F)cccc43)c2=O)cc1` [Example 350] the inhibition at 10 µM [1, 8] was 74.2% and the EC50 [3, 9] was less than 1000 nM.
In the case of `O=C(NC1CN2CCC1CC2)c1ccc(-n2[nH]c3c(nnc4c(F)cccc43)c2=O)cc1` (stereo not shown) [Example 353], the inhibition at 10 µM [1, 8] is reported as 77.4% and the EC50 [3, 9] is reported as less than 1000 nM.
For `O=C(NCC(F)F)c1ccc(-n2[nH]c3c(nnc4c(F)cccc43)c2=O)cc1` [Example 376], the inhibition at 10 µM [1, 8] was 56.7% and the EC50 [3, 9] was less than 1000 nM.
With `O=C(NCCCNC1CCCCC1)c1ccc(-n2[nH]c3c(nnc4c(F)ccc(F)c43)c2=O)cc1` [Example 429] the inhibition at 10 µM [1, 8] was 58.8% and the EC50 [3, 9] was less than 1000 nM.
In the case of `CCCNCCCNC(=O)c1ccc(-n2[nH]c3c(nnc4c(F)cccc43)c2=O)cc1` [Example 442], the inhibition at 10 µM [1, 8] is reported as 58.9% and the EC50 [3, 10] is reported as less than 1000 nM.
Molecule `CCN1CCC(NC(=O)c2ccc(-n3[nH]c4c(nnc5c(F)cccc54)c3=O)cc2)CC1` [Example 453] has an inhibition at 10 µM [1, 8] of 55.7% and an EC50 [3, 10] of less than 1000 nM.
Work on `CN(C)C1CCC(NC(=O)c2ccc(-n3[nH]c4c(nnc5c(F)cccc54)c3=O)cc2)CC1` (stereo not shown) [Example 472] yielded an inhibition at 10 µM [1, 8] of 58.4% and an EC50 [3, 10] of less than 1000 nM.
In the case of `CN(CCCCNC(=O)c1ccc(-n2[nH]c3c(nnc4c(F)cccc43)c2=O)cc1)C(C)(C)C` [Example 478], the inhibition at 10 µM [1, 8] is reported as 56% and the EC50 [3, 10] is reported as less than 1000 nM.
With `N#CCNC(=O)c1ccc(-n2[nH]c3c(nnc4c(F)cccc43)c2=O)cc1` [Example 482] the inhibition at 10 µM [1, 8] was 39.2% and the EC50 [3, 10] was less than 1000 nM.
For “CD28: "the endogenous protein ligand (CD28)" of CD80; "CD28 on T-cells"”, the “off-rate of CD80 interaction with endogenous protein ligand” value [4] is listed as “greater than 0.2 s^−1” and the Kd ([4]; read-out: KD of CD80 interaction with endogenous protein ligand) is listed as 4750 nM.
